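Exposure lasted 48 hours, with cells grown in 96-well plates and compounds tested at five concentrations. GI50 marks 50% less growth.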 The source made the active and inactive calls. Cut-off read from the data, not from the text of the source: active = GI50 up to about 1.1 µM and inactive = higher.
Columns and labels:
Experiment in all cases: NCI-60 cell line screen, 48 h
[1] = system: CCRF-CEM
[2] = system: NCI-H522
[3] = system: SN12C
[4] = system: HOP-92
[5] = system: SK-MEL-2
[6] = system: ACHN
[7] = system: OVCAR-8
[8] = system: SK-OV-3
[9] = system: A549
[10] = system: NCI-H23
[11] = system: HOP-62
[12] = system: TK-10
[13] = system: SK-MEL-5
[14] = system: EKVX
[15] = system: HCT-15
[16] = system: CAKI-1
[17] = system: RPMI-8226

Compound | GI50 [1] | GI50 [2] | GI50 [3] | GI50 [4] | GI50 [5] | GI50 [6] | GI50 [7] | GI50 [8] | GI50 [9] | GI50 [10] | GI50 [11] | GI50 [12] | GI50 [13] | GI50 [14] | GI50 [15] [µM] | GI50 [16] | GI50 [17]
CCCCCCCCCCCCCCCC(=O)NCC(OCC)OCC | > 100 µM (inactive) | > 100 µM (inactive) | > 100 µM (inactive) | > 100 µM (inactive) | > 100 µM (inactive) | > 100 µM (inactive) | > 100 µM (inactive) | > 100 µM (inactive) | > 100 µM (inactive) | > 100 µM (inactive) | > 100 µM (inactive) | > 100 µM (inactive) | > 100 µM (inactive) | > 100 µM (inactive) | > 100 | – | –
C/C(O)=C1\CC2CN3CCc4c([nH]c5ccccc45)C3CC2CC1=O (stereo unspecified) | 29.4 µM (inactive) | 65.6 µM (inactive) | 71.1 µM (inactive) | – | 43 µM (inactive) | 82.8 µM (inactive) | 89.1 µM (inactive) | 24.8 µM (inactive) | > 100 µM (inactive) | 92 µM (inactive) | > 100 µM (inactive) | > 100 µM (inactive) | 55.2 µM (inactive) | 37 µM (inactive) | 45.4 | – | –
CC(C)(C)N/N=C(\C(=O)Nc1nnc(S)[nH]1)C1C(=O)Nc2ccccc2[S+]1[O-] (stereo unspecified) | > 100 µM (inactive) | > 100 µM (inactive) | > 100 µM (inactive) | – | > 100 µM (inactive) | > 100 µM (inactive) | > 100 µM (inactive) | > 100 µM (inactive) | > 100 µM (inactive) | > 100 µM (inactive) | > 100 µM (inactive) | > 100 µM (inactive) | > 100 µM (inactive) | > 100 µM (inactive) | > 100 | > 100 µM (inactive) | > 100 µM (inactive)
N#C/N=C1\NC(Cc2ccccc2)C(=O)N1CCc1c[nH]c2ccccc12 (stereo unspecified) | 25.5 µM (inactive) | – | 29.9 µM (inactive) | – | – | – | 37.4 µM (inactive) | 26.3 µM (inactive) | 27 µM (inactive) | 35.7 µM (inactive) | 28.1 µM (inactive) | 26.6 µM (inactive) | 17.8 µM (inactive) | 22.4 µM (inactive) | 29.4 | – | 25.6 µM (inactive)
CCOC(=O)c1nn2c(nc1=O)sc1ccc3ccccc3c12 | 58.2 µM (inactive) | – | > 100 µM (inactive) | > 100 µM (inactive) | > 100 µM (inactive) | > 100 µM (inactive) | > 100 µM (inactive) | > 100 µM (inactive) | > 100 µM (inactive) | > 100 µM (inactive) | > 100 µM (inactive) | > 100 µM (inactive) | > 100 µM (inactive) | > 100 µM (inactive) | > 100 | > 100 µM (inactive) | > 100 µM (inactive)
O=C(NC(=O)c1cc2cc(Br)cc(Br)c2oc1=O)Oc1ccccc1 | > 100 µM (inactive) | – | 61.2 µM (inactive) | > 100 µM (inactive) | – | 21.7 µM (inactive) | 46.5 µM (inactive) | 37 µM (inactive) | > 100 µM (inactive) | > 100 µM (inactive) | 43.7 µM (inactive) | 47.9 µM (inactive) | > 100 µM (inactive) | > 100 µM (inactive) | > 100 | 43 µM (inactive) | > 100 µM (inactive)
Cc1cc(C)nc(NS(=O)(=O)c2ccc(NC(=O)c3cccc4c(Nc5ccc(S(=O)(=O)N=C(N)N)cc5)c5ccc(Cl)cc5nc34)cc2)n1 | 21.4 µM (inactive) | 18.2 µM (inactive) | 29.8 µM (inactive) | – | – | 80.9 µM (inactive) | 39.4 µM (inactive) | > 100 µM (inactive) | – | 30.8 µM (inactive) | 43.7 µM (inactive) | 40 µM (inactive) | – | 30.8 µM (inactive) | 39.4 | – | 23.5 µM (inactive)
COC(=O)[C@H]1COC(=S)N1C(=O)[C@@H](C)[C@H](O)C(C)C | > 100 µM (inactive) | – | > 100 µM (inactive) | > 100 µM (inactive) | > 100 µM (inactive) | > 100 µM (inactive) | > 100 µM (inactive) | > 100 µM (inactive) | > 100 µM (inactive) | > 100 µM (inactive) | > 100 µM (inactive) | > 100 µM (inactive) | > 100 µM (inactive) | > 100 µM (inactive) | > 100 | > 100 µM (inactive) | > 100 µM (inactive)
COC(=O)C(C(=O)C(=O)Nc1ccc(N)cc1[N+](=O)[O-])c1nc2ccc(Cl)cc2nc1O (stereo unspecified) | 92.5 µM (inactive) | – | > 100 µM (inactive) | 52.7 µM (inactive) | > 100 µM (inactive) | > 100 µM (inactive) | > 100 µM (inactive) | > 100 µM (inactive) | > 100 µM (inactive) | > 100 µM (inactive) | > 100 µM (inactive) | > 100 µM (inactive) | 95.5 µM (inactive) | > 100 µM (inactive) | > 100 | > 100 µM (inactive) | > 100 µM (inactive)
O=C(CC1Sc2ccccc2NC1=O)Nc1cc(Cl)ccc1Cl (stereo unspecified) | 31.2 µM (inactive) | – | > 100 µM (inactive) | > 100 µM (inactive) | > 100 µM (inactive) | > 100 µM (inactive) | > 100 µM (inactive) | – | > 100 µM (inactive) | > 100 µM (inactive) | – | > 100 µM (inactive) | > 100 µM (inactive) | > 100 µM (inactive) | > 100 | > 100 µM (inactive) | > 100 µM (inactive)
COC(=O)C(c1n[nH]c2ccccc12)C(C(=O)OC)c1n[nH]c2ccccc12 (stereo unspecified) | 24.5 µM (inactive) | – | 31.1 µM (inactive) | – | – | 49.4 µM (inactive) | 24.8 µM (inactive) | > 100 µM (inactive) | > 100 µM (inactive) | 30.9 µM (inactive) | > 100 µM (inactive) | > 100 µM (inactive) | – | > 100 µM (inactive) | > 100 | – | 13.5 µM (inactive)
Nc1ccc(C(c2ccccc2)(c2ccccc2)c2ccccc2)cc1 | 29.6 µM (inactive) | – | 66.5 µM (inactive) | 14 µM (inactive) | > 100 µM (inactive) | 52.5 µM (inactive) | 33.9 µM (inactive) | 17.6 µM (inactive) | > 100 µM (inactive) | 30.1 µM (inactive) | 27.9 µM (inactive) | 20.2 µM (inactive) | 42.2 µM (inactive) | 27.2 µM (inactive) | 78.7 | – | 39 µM (inactive)
COc1ccc(C2C(Cl)C(=O)N2NC(=O)c2ccc(NC(C)=O)cc2)cc1 (stereo unspecified) | > 100 µM (inactive) | > 100 µM (inactive) | > 100 µM (inactive) | > 100 µM (inactive) | > 100 µM (inactive) | > 100 µM (inactive) | > 100 µM (inactive) | > 100 µM (inactive) | > 100 µM (inactive) | > 100 µM (inactive) | > 100 µM (inactive) | > 100 µM (inactive) | > 100 µM (inactive) | > 100 µM (inactive) | > 100 | > 100 µM (inactive) | –
O=C1c2ccccc2-c2ccccc2C(=O)C1(Br)Br | 2.52 µM (inactive) | 2.15 µM (inactive) | 11.8 µM (inactive) | 3.21 µM (inactive) | 9.75 µM (inactive) | 11.7 µM (inactive) | 11 µM (inactive) | 19.5 µM (inactive) | 17.7 µM (inactive) | 13.4 µM (inactive) | 18.2 µM (inactive) | 10.6 µM (inactive) | 17.3 µM (inactive) | 14.6 µM (inactive) | 12.4 | 5.87 µM (inactive) | 1.84 µM (inactive)

— ChEMBL document CHEMBL1201862, “PubChem BioAssay data set” (2004)
